Assays:
[1] = system: sympathic nervious system; details: Bull. Soc. Chim. France 1940, 603; cited from earlier work
respiratory centre = details: Bull. Soc. Chim. France 1947, 827; cited from earlier work
[2] = J. Med. Chem. 6, 705 (1963); cited from earlier work
[3] = literature; cited from earlier work
[4] = system: ouabain-induced arrhythmia; assay: Ouabain-induced arrhythmia in anaesthetized dogs; assay type: in vivo; details: i.v.; for Complete suspension, number of cases: protection > 30 min = complete
Experimental: Anaesthetized dogs of both sexes were treated intravenously with an infusion of 60 /ug/kg of ouabain to provoke arrhythmia, and the arrhythmic state was maintained with an ouabain dose 60 times less than the initial. In this way a ventricular tachycardia or tachyarrhythmia lasting for more than 180 minutes was provoked. The compounds were tested during this period. The period of recovered normal sinus rhythm was recorded, and when a compound exerted protective effect for more than 30 minutes, this fact was regarded as complete protection. The tests were performed essentially according to the method of Piascik et al. [Can.
Examination of the anti-arrhythmic effect in dogs anaesthetized with a 30
of pentobarbital sodium and treated with ouabain

[5] = system: barium chloride-induced arrhythmia; assay: Barium chloride-induced arrhythmia in awake rabbits; assay type: in vivo; details: i.v., 2 mg/kg; arrhythmia suspended for at least 3 minutes
Experimental: The compounds to be tested were administered intravenously to the animals 3 minutes after treating them with barium chloride, and the effect was recorded. It was regarded as a positive protecting effect when the compound suspended the arrhythmic condition for at least 3 minutes.

[6] = system: fibrillation threshold of the heart; assay: Determination of the fibrillation threshold in anaesthetized cats; assay type: in vivo; details: i.v.
From the text: The chests of the cats were opened under chloralose-urethane anaesthesia a bipolar stimulating electrode was fixed onto the heart, and the heart was stimulated electrically with a frequency of 20 Hz, under continuously increasing current strength, until a fibrillo-flattern could be observed. This current strength was regarded as the fibrillation threshold of the animal.

left auricle = assay: Electrophysiological tests on isolated rabbit heart, left auricle; design: species or system rabbits; details: 2 mg/l, average
Experimental: (§1) Heart of rabbits of both sexes, weighing 1-2 kg, were removed, the right and left auricles and a segment of the right ventricle were prepared and placed into a vessel filled with nutrient solution. Bipolar platinum electrodes (a stimulating electrode and a lead electrode) were placed onto the organ strips, and the electric stimulus threshold and the speed of impulse condution were measured. The effective refractory period determined on the basis of the maximum driving frequency.

right ventricle = assay: Electrophysiological tests on isolated rabbit heart, right ventricle; design: species or system rabbits; details: 2 mg/l, average
Experimental: as §1

[7] = system: myocardial contractile force, arterial blood pressure and pulse rate; assay: Inotropic effects (myocardial contractile force) in anaesthetized cats; assay type: in vivo; details: i.v.; for Contractility, change: basal 100
Experimental: Cats were anaesthetized with chloralose-urethane, a cannula was lead into the femoral artery, and the cannula was connected, through a Statham P 23 Db pressure sensor, to a Hellige recorder, where the arterial blood pressure and the pulse rate were recorded. The animals were respirated artifically, their chests were opened, and a strain gage was sutured on the left heart. The strain gage was connected to the Hellige recorder, and the variations in cardiac contractile force were recorded. The test compounds were administered to the animals intravenously through a cannula.

[8] = system: systemic and pulmonary circulation; assay: Effects on the systemic and pulmonary circulation of awake cats; assay type: in vivo; details: i.v., 1.0 mg/kg
From the text: Cats were anaesthetized with pentobarbital, and cannulas were placed into the carotis artery and, through the jugular vein, into the pulmonary artery. An additional cannula was placed into the jugular vein for the administration of the test compound. The cannulas were filled up with heparin in order to avoid blood clotting. Thereafter the wounds were sutured, and the cannulas were led below a bandage placed around the neck of the animal. 3 days after this operation the systemic arterial blood pressure, the pulmonary arterial pressure and the pulse rate of the awake animals were measured with a Hellige recorder, connected to the cannulas through a Statham P 23 Db type pressure transducer.

[9] = system: aconitin-induced arrhythmia; details: mouse, in vivo
in vivo = details: mouse, ip
[10] = system: aconitin-induced arrhythmia; assay: animal or person; details: Mus musculus, ip, read-out: Delay in time of appearance of arrhythmia

In the case of `CC(CN)Nc1ccccc1` (centres unmarked) [1-amino-2-phenylamino-propane], the “acting on the sympathetic nervous system” value [1] is given as “acting on the sympathic nervious system”.
For `CCN(CC)CCNc1cccc(Cl)c1` [1-(3-chlorophenyl-amino)-2-diethylamino-ethane], the “stimulates the respiratory centre” value (respiratory centre) is listed as “stimulates the respiratory centre”.
For `Cc1cccc(C)c1N(C)CCN` [N-methyl-N-(2,6-dimethylphenyl)-ethylenediamine], the hypotensive effects [2] is given as “hypotensive effects”.
In the case of `CCN(CC)CCNc1c(C)cccc1C` [1-(2,6-dimethylphenyl-amino)-2-diethylamino-ethane], the local anaesthetic effects [3] is given as “local anaesthetic effects”.
For `Cc1cccc(C)c1NCC(C)N(C)C` (centres unmarked) [1-(2,6-dimethylphenyl-amino)-2-dimethylamino-propane], the “Average time of partial suspension” value ([4]; 0.5 mg/kg) was 0.4 min, the “Complete suspension, number of cases” value ([4]; 0.5 mg/kg) was 0/15 and the “Average time of partial suspension” value ([4]; 1.0 mg/kg) was 1.5 min. For the same compound, the “Complete suspension, number of cases” value ([4]; 1.0 mg/kg) was 0/15, the “Average time of partial suspension” value ([4]; 2.0 mg/kg) was 5.7 min and the “Complete suspension, number of cases” value ([4]; 2.0 mg/kg) was 4/15. The “Average time of partial suspension” value ([4]; 4.0 mg/kg) was 6.4 min, the “Complete suspension, number of cases” value ([4]; 4.0 mg/kg) was 3/12 and the “Average time of partial suspension” value ([4]; 8.0 mg/kg) was 10.0 min. For the same compound, the “Complete suspension, number of cases” value ([4]; 8.0 mg/kg) was 5/9, the “Protecting effect, number of animals” value [5] was 5/10 and the “Effect on the fibrillation threshold” value ([6]; 0.5 mg/kg) was “+8.6%”. For the same compound, the “Effect on the fibrillation threshold” value ([6]; 1.0 mg/kg) was “+12.2%”, the “Effect on the fibrillation threshold” value ([6]; 2.0 mg/kg) was “+27.0%” and the “Effect on the fibrillation threshold” value ([6]; 4.0 mg/kg) was “+53.9%”. The “Change of the conduction time” value (left auricle) was “+12%”, the “Change of the effective refractory period” value (left auricle) was “+20%” and the “Change of the electric stimulus threshold” value (left auricle) was “+32%”. The “Change of the conduction time” value (right ventricle) was “+12%”, the “Change of the effective refractory period” value (right ventricle) was “+18%” and the “Change of the electric stimulus threshold” value (right ventricle) was “+6%”. For the same compound, the “Arterial blood pressure, change” value ([7]; 0.5 mg/kg) was -7 mmHg, the “Pulse/minute, change” value ([7]; 0.5 mg/kg) was “+10 /minute” and the “Contractility, change” value ([7]; 0.5 mg/kg) was -5%. The “Arterial blood pressure, change” value ([7]; 1.0 mg/kg) was -10 mmHg, the “Pulse/minute, change” value ([7]; 1.0 mg/kg) was “+15 /minute” and the “Arterial blood pressure, change” value ([7]; 2.0 mg/kg) was -30 mmHg. For the same compound, the “Pulse/minute, change” value ([7]; 2.0 mg/kg) was -10 min⁻¹, the “Arterial blood pressure, change” value ([7]; 5.0 mg/kg) was -40 mmHg and the “Pulse/minute, change” value ([7]; 5.0 mg/kg) was -25 min⁻¹. For the same compound, the “Contractility, change” value ([7]; 5.0 mg/kg) was -33%, the “Pulmonary arterial mean pressure, change” value ([8]; basal 13) was “+2.8 mmHg” and the “Arterial blood pressure, change” value ([8]; basal 102) was “+2 mmHg”. The “Pulse/minute, change” value ([8]; basal 190-200) was -9 min⁻¹, the “column headed by drawing 10 (apparently LD50/ED50)” value ([9]; ip) was 5.7 and the “Delay in the appearance time of arrhythmia” value ([9]; po, 100 mg/kg) was “+74.0%”. For the same compound, the LD50 (in vivo) was 114 mg/kg, the change in vivo at 10 mg/kg [10] was 17.2% and the change in vivo at 25 mg/kg [10] was 72.7%. For the same compound, the change in vivo at 50 mg/kg [10] was 138% and the change in vivo at 75 mg/kg [10] was 212%.
For `CCN(CCN)c1c(C)cccc1C` [N-ethyl-N-(2,6-dimethylphenyl)-ethylenediamine], the hypotensive effects [2] is listed as “hypotensive effects”.
For `Cc1cccc(C)c1NCCN` [N-(2,6-dimethylphenyl)-ethylenediamine], the hypotensive effects [2] is given as “hypotensive effects”.

From patent publication US4922021A, “New alkylene diamine derivatives” (BASF Aktiensellschaft, priority 1981, dated 1990)
